{"source": "patent US12061201B2", "about": "“Fluorescent probes for the visualization of FtsZ in gram-positive and gram-negative bacterial pathogens” (Rutgers, The State University of New Jersey, priority 2019, dated 2024)", "assay_in_all_cases": "Fluorescence anisotropy binding of BOFP to FtsZ", "key": {"[1]": {"target": "T1, Enterococcus faecium FtsZ (EfmFtsZ) (Enterococcus faecium, UniProt Q3Y2I1)", "T1 sequence (Q3Y2I1 1-413)": "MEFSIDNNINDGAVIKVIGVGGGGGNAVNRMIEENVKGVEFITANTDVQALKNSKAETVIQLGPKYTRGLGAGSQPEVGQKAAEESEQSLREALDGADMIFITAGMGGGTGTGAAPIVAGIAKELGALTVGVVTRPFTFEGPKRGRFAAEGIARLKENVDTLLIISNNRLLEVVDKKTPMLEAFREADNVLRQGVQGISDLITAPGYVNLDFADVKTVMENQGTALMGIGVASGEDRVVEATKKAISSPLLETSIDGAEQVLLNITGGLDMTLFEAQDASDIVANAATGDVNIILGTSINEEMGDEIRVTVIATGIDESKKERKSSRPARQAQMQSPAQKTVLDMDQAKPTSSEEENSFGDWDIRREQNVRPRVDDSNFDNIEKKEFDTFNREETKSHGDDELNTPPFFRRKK", "details": "for Kd: 50 mM Tris-HCl (pH 7.6), 50 mM KCl", "description": "(§1) Fluorescence anisotropy assay for determining the affinities and thermodynamics associated with the binding of BOFP to FtsZ proteins. Fluorescence anisotropy experiments were performed using an AVIV model ATF105 spectrofluorometer at 15, 25, or 37° C. In these experiments, bandwidths were set to 4 nm in both the excitation and emission directions, with the excitation and emission wavelengths being set at 488 nm and 510 nm, respectively. BOFP (0.1 μM) was titrated with increasing concentrations (ranging from 0 to 12 μM) of FtsZ in 120 μL of buffer containing 50 mM Tris-HCl (pH 7.6) and 50 mM KCl. After each protein addition, the samples were equilibrated for 3 minutes, whereupon the fluorescence anisotropy was measured.\n(§2) [formula] In this equation, r0 is the anisotropy of the protein-free compound, r∞ is the anisotropy of the compound in the presence of an infinite concentration of FtsZ, [C]tot is the total concentration of the compound, and [P]tot is the total concentration of protein with each addition. These analyses yielded the equilibrium dissociation constant (Kd) for each binding reaction.\n(§3) The binding free energy (ΔG) at temperature T was derived from the corresponding Kd value determined at T using the following relationship:\n(§4) [formula] The binding enthalpy (ΔH) and entropy (ΔS) were derived from linear fits of the ln(1/Kd) vs. 1/T plots shown in FIGS. 3f and 5e using the following relationship:\n(§5) A quartz ultra-micro cell (Hellma) with a 2×5 mm aperture and a 15 mm center height was used for all measurements. The pathlengths in the excitation and emissions directions were 1 and 0.2 cm, respectively. All steady-state anisotropy experiments were conducted in at least triplicate, with the reported anisotropies reflecting the average values."}, "[2]": {"target": "T2, S. aureus FtsZ (SaFtsZ) (Staphylococcus aureus, UniProt P0A031)", "T2 sequence (P0A031 1-390)": "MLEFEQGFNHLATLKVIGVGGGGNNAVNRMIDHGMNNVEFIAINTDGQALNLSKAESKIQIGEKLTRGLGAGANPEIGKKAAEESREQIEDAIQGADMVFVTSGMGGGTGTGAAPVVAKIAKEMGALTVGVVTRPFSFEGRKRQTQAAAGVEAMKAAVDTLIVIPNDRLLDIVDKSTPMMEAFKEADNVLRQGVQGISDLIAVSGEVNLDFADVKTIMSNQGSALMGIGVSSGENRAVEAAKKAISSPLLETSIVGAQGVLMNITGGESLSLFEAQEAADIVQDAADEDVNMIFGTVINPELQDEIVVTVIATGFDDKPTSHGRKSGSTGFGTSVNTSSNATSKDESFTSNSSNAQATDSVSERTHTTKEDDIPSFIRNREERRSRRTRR", "description": "as §1, §2, §3, §4, §5"}, "[3]": {"target": "T3, Acinetobacter baumannii FtsZ (AbFtsZ) (Acinetobacter baumannii, UniProt V5V8B6)", "T3 sequence (V5V8B6 1-391)": "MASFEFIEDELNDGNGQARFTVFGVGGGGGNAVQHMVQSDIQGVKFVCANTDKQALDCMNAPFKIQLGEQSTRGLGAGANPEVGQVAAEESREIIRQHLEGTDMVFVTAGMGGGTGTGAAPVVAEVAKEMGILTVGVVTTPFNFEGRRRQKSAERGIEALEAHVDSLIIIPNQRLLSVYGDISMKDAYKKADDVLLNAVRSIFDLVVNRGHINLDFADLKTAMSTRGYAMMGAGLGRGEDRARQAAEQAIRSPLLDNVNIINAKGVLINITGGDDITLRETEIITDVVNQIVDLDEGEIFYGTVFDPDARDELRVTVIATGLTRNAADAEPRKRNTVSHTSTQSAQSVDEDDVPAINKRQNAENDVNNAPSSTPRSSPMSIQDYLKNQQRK", "details": "for Kd: 50 mM Tris-HCl (pH 7.6), 50 mM KCl", "description": "as §1, §2, §3, §4, §5"}, "[4]": {"target": "Escherichia coli FtsZ (EcFtsZ) (Escherichia coli, UniProt P0A9A6)", "sequence (P0A9A6 whole entry)": "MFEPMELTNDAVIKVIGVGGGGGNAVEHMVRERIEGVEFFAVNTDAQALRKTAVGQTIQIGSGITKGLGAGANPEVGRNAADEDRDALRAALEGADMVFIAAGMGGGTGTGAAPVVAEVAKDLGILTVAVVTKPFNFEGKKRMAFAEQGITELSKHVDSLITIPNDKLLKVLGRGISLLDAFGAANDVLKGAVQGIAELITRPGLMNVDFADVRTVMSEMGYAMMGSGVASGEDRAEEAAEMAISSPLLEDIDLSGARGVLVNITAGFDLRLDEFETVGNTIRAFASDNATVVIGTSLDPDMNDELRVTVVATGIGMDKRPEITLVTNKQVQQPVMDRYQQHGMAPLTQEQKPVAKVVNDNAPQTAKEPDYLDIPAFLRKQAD", "details": "for Kd: 50 mM Tris-HCl (pH 7.6), 50 mM KCl", "description": "as §1, §2, §3, §4, §5"}, "[5]": {"target": "Streptococcus pyogenes FtsZ (SpyFtsZ) (Streptococcus pyogenes, UniProt Q99YV7)", "sequence (Q99YV7 entry or part of it)": "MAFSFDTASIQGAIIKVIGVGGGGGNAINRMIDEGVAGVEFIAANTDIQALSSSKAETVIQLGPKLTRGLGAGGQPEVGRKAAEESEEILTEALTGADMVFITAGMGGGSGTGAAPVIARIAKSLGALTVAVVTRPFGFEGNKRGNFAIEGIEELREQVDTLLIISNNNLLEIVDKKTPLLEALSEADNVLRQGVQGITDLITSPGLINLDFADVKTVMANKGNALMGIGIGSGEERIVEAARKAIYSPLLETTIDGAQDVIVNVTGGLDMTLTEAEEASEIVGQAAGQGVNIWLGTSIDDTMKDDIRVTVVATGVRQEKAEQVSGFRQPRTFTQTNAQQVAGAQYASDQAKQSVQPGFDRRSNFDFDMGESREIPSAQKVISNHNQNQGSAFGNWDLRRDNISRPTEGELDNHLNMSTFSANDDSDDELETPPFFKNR", "details": "for Kd: 50 mM Tris-HCl (pH 7.6), 50 mM KCl", "description": "as §1, §2, §3, §4, §5"}, "[6]": {"target": "T2, S. aureus FtsZ (SaFtsZ)", "details": "0.1 μM BOFP, 10 μM SaFtsZ, 37° C."}, "[7]": {"details": "linear fit of ln(1/Kd) vs. 1/T, Eq. 3"}, "[8]": {"details": "SaFtsZ, linear fit of ln(1/Kd) vs. 1/T, Eq. 3"}}, "note": "Entries after “also recorded” stand apart in the source; their conditions may differ. Where two headings read alike, the source gives them in different places.", "data": [{"smiles": "CC1=CC(C)=[N+]2C1=Cc1ccc(CCC(=O)OCC(Oc3ccc(F)c(C(N)=O)c3F)c3nc(-c4ccc(C(F)(F)F)cc4)c(Br)o3)n1[B-]2(F)F", "note": "(stereo not drawn) [BOFP, 2-(5-bromo-4-(4-(trifluoromethyl)phenyl)-oxazol-2-yl)-2-(3-carbamoyl-2,4-difluorophenoxy)ethyl 3-(5,5-difluoro-7,9-dimethyl-5H-5λ^4,6λ^4-dipyrrolo[1,2-c:2′,1′-f][1,3,2]diazaborinin-3-yl)propanoate]", "values": [{"measurement": "ΔS contribution to the observed ΔG of binding", "setting": "[1]", "result": "> 50", "unit": "%"}, {"measurement": "Kd", "setting": "[1]; 15° C., read-out: Kd −15° C.", "result": "2.5 ± 0.14", "unit": "µM"}, {"measurement": "Kd", "setting": "[1]; 25° C., read-out: Kd −25° C.", "result": "2.62 ± 0.08", "unit": "µM"}, {"measurement": "Kd", "setting": "[1]; 37° C., read-out: Kd −37° C.", "result": "3.14 ± 0.22", "unit": "µM"}, {"measurement": "ΔH", "setting": "[1]; [7]", "result": "-1.9 ± 0.6", "unit": "kcal/mol"}, {"measurement": "ΔS", "setting": "[1]; [7]", "result": "+19.2 ± 1.9 cal/mol · K"}, {"measurement": "Kd", "setting": "[2]", "result": "0.88 to 3.14", "unit": "µM"}, {"measurement": "enthalpic contribution (ΔH) to the observed ΔG of binding", "setting": "[2]; SaFtsZ", "result": 100, "unit": "%"}, {"measurement": "Kd", "setting": "[2]; SaFtsZ, 15° C., 50 mM Tris-HCl (pH 7.6), 50 mM KCl, read-out: Kd −15° C.", "result": "0.88 ± 0.08", "unit": "µM"}, {"measurement": "Kd", "setting": "[2]; SaFtsZ, 25° C., 50 mM Tris-HCl (pH 7.6), 50 mM KCl, read-out: Kd −25° C.", "result": "1.66 ± 0.12", "unit": "µM"}, {"measurement": "Kd", "setting": "[2]; SaFtsZ, 37° C., 50 mM Tris-HCl (pH 7.6), 50 mM KCl, read-out: Kd −37° C.", "result": "3.14 ± 0.13", "unit": "µM"}, {"measurement": "ΔG", "setting": "[2]; SaFtsZ, T = 310K (37° C.), Eq. 2", "result": "-7.8 ± 0.1", "unit": "kcal/mol"}, {"measurement": "ΔH", "setting": "[2]; [8]", "result": "-10.2 ± 0.3", "unit": "kcal/mol"}, {"measurement": "ΔS", "setting": "[2]; [8]", "result": "−7.8 ± 1.0", "unit": "cal/mol · K"}, {"measurement": "ΔS contribution to the observed ΔG of binding", "setting": "[3]", "result": "> 50", "unit": "%"}, {"measurement": "Kd", "setting": "[3]; 15° C., read-out: Kd −15° C.", "result": "0.4 ± 0.03", "unit": "µM"}, {"measurement": "Kd", "setting": "[3]; 25° C., read-out: Kd −25° C.", "result": "0.55 ± 0.02", "unit": "µM"}, {"measurement": "Kd", "setting": "[3]; 37° C., read-out: Kd −37° C.", "result": "0.68 ± 0.04", "unit": "µM"}, {"measurement": "ΔH", "setting": "[3]; [7]", "result": "-4.2 ± 0.6", "unit": "kcal/mol"}, {"measurement": "ΔS", "setting": "[3]; [7]", "result": "+14.5 ± 2.1 cal/mol · K"}, {"measurement": "ΔH contribution to the observed ΔG of binding", "setting": "[4]", "result": "> 50", "unit": "%"}, {"measurement": "Kd", "setting": "[4]; 15° C., read-out: Kd −15° C.", "result": "0.22 ± 0.03", "unit": "µM"}, {"measurement": "Kd", "setting": "[4]; 25° C., read-out: Kd −25° C.", "result": "0.28 ± 0.02", "unit": "µM"}, {"measurement": "Kd", "setting": "[4]; 37° C., read-out: Kd −37° C.", "result": "0.44 ± 0.04", "unit": "µM"}, {"measurement": "ΔG", "setting": "[4]; T = 310K (37° C.), Eq. 2", "result": "-9.0 ± 0.1", "unit": "kcal/mol"}, {"measurement": "ΔH", "setting": "[4]; [7]", "result": "-5.6 ± 0.8", "unit": "kcal/mol"}, {"measurement": "ΔS", "setting": "[4]; [7]", "result": "+11.2 ± 2.7 cal/mol · K"}, {"measurement": "ΔH contribution to the observed ΔG of binding", "setting": "[5]", "result": "> 50", "unit": "%"}, {"measurement": "Kd", "setting": "[5]; 15° C., read-out: Kd −15° C.", "result": "0.91 ± 0.06", "unit": "µM"}, {"measurement": "Kd", "setting": "[5]; 25° C., read-out: Kd −25° C.", "result": "1.31 ± 0.08", "unit": "µM"}, {"measurement": "Kd", "setting": "[5]; 37° C., read-out: Kd −37° C.", "result": "1.55 ± 0.08", "unit": "µM"}, {"measurement": "ΔG", "setting": "[5]; T = 310K (37° C.), Eq. 2", "result": "-8.2 ± 0.1", "unit": "kcal/mol"}, {"measurement": "ΔH", "setting": "[5]; [7]", "result": "-4.3 ± 1.1", "unit": "kcal/mol"}, {"measurement": "ΔS", "setting": "[5]; [7]", "result": "+12.8 ± 3.7 cal/mol · K"}, {"measurement": "effect of both GMPCPP and MgCl2 on the anisotropy of SaFtsZ-bound BOFP", "setting": "[6]; GMPCPP 0.1 mM and MgCl2 10 mM", "result": "modest increase in the anisotropy"}, {"measurement": "effect of GMPCPP alone or MgCl2 alone on the anisotropy of SaFtsZ-bound BOFP", "setting": "[6]; GMPCPP 0.1 mM or MgCl2 10 mM", "result": "neither GMPCPP alone (at 0.1 mM) nor MgCl2 alone (at 10 mM) has a significant effect; also recorded: independent of either GTP or magnesium"}]}]}
